Data as given in patent US7595401B2, “Therapeutic compounds and their use in cancer” (Myriad Pharmaceuticals, Inc., priority 2006, dated 2009).
pIC50: −log10 of the molar value.

The molecules below were run on purified human Hsp90 (assay: Binding Assay: fluorescence polarization with BODIPY-labeled geldanamycin). Conditions: 5 μM compound, BODIPY-GM 10 nM, Hsp90 30 nM.
Method in brief: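 Fluorescence polarization competition with BODIPY-geldanamycin (10 nM final) and human Hsp90 (30 nM final) in HEPES-KOH pH 7.3 buffer with molybdate, NP-40, DTT; 2% DMSO, overnight at room temperature. Read 485/530 nm; percent inhibition from mP normalized to DMSO controls, fluorescent-compound points excluded.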

Compound | % Inhibition at 5 μM Compound Concentration
CC(C)NC(=O)N1CCC(CCn2cnc(N)c3nc(Sc4cc5c(cc4Br)OCO5)nc2-3)CC1 [Example 439, 4-(2-{6-Amino-8-[(6-bromo-1,3-benzodioxol-5-yl)thio]-3H-purin-3-yl}ethyl)-N-isopropylpiperidine-1-carboxamide] | 24%
CCNC(=O)N1CCCC(CCn2cnc(N)c3nc(Sc4cc5c(cc4Br)OCO5)nc2-3)C1 (stereo not shown) [Example 440, 3-(2-{6-Amino-8-[(6-bromo-1,3-benzodioxol-5-yl)thio]-3H-purin-3-yl}ethyl)-N-ethylpiperidine-1-carboxamide] | 60%
CC(C)NC(=O)N1CCCC(CCn2cnc(N)c3nc(Sc4cc5c(cc4Br)OCO5)nc2-3)C1 (stereo not shown) [Example 441, 3-(2-{6-Amino-8-[(6-bromo-1,3-benzodioxol-5-yl)thio]-3H-purin-3-yl}ethyl)-N-isopropylpiperidine-1-carboxamide] | 45%
CC(C)(C)NC(=O)N1CCCC(CCn2cnc(N)c3nc(Sc4cc5c(cc4Br)OCO5)nc2-3)C1 (stereo not shown) [Example 442, 3-(2-{6-Amino-8-[(6-bromo-1,3-benzodioxol-5-yl)thio]-3H-purin-3-yl}ethyl)-N-(tert-butyl)piperidine-1-carboxamide] | 4%
CCOC(=O)CNC(=O)N1CCC(CCn2cnc(N)c3nc(Sc4cc5c(cc4Br)OCO5)nc2-3)CC1 [Example 443, Ethyl N-{[4-(2-{6-amino-8-[(6-bromo-1,3-benzodioxol-5-yl)thio]-3H-purin-3-yl}ethyl)piperidin-1-yl]carbonyl}glycinate] | 36%
CC(C)N1CCCCC1CCn1cnc(N)c2nc(Sc3cc4c(cc3Br)OCO4)nc1-2 (stereo not shown) [Example 446, 8-[(6-Bromo-1,3-benzodioxol-5-yl)thio]-3-[2-(1-isopropylpiperidin-2-yl)ethyl]-3H-purin-6-amine] | 4%
CC(C)CN1CCCCC1CCn1cnc(N)c2nc(Sc3cc4c(cc3Br)OCO4)nc1-2 (stereo not shown) [Example 448, 8-[(6-Bromo-1,3-benzodioxol-5-yl)thio]-3-[2-(1-isobutylpiperidin-2-yl)ethyl]-3H-purin-6-amine] | 45%
CC(C)(C)C(=O)N1CCCC(CCn2cnc(N)c3nc(Sc4cc5c(cc4Br)OCO5)nc2-3)C1 (stereo not shown) [Example 450, 8-[(6-Bromo-1,3-benzodioxol-5-yl)thio]-3-{2-[1-(2,2-dimethylpropanoyl)piperidin-3-yl]ethyl}-3H-purin-6-amine] | 57%
CC(C)(C)C(=O)N1CCC(CCn2cnc(N)c3nc(Sc4cc5c(cc4Br)OCO5)nc2-3)CC1 [Example 452, 8-[(6-Bromo-1,3-benzodioxol-5-yl)thio]-3-{2-[1-(2,2-dimethylpropanoyl)piperidin-4-yl]ethyl}-3H-purin-6-amine] | 21%

Further lines, results first:

% Inhibition at 5 μM Compound Concentration | Compound
18% | CC(C)(C)OC(=O)N1CC(CCn2cnc(N)c3nc(Sc4cc5c(cc4Br)OCO5)nc2-3)C1 [Example 459, tert-Butyl 3-(2-{6-amino-8-[(6-bromo-1,3-benzodioxol-5-yl)thio]-3H-purin-3-yl}ethyl)azetidine-1-carboxylate]
14% | CC(C)(C)OC(=O)N1C=C(CCn2cnc(N)c3nc(Sc4cc5c(cc4Br)OCO5)nc2-3)CCC1 [Example 463, tert-Butyl 5-(2-{6-amino-8-[(6-bromo-1,3-benzodioxol-5-yl)thio]-3H-purin-3-yl}ethyl)-3,4-dihydropyridine-1(2 H)-carboxylate]
0% | COc1ccc(OC)c(Sc2nc3c(N)ncn(CCC4CCNCC4)c-3n2)c1 [Example 467, 8-[(2,5-Dimethoxyphenyl)thio]-3-(2-piperidin-4-ylethyl)-3 H-purin-6-amine]
9% | Nc1ncn(CCC2CCNCC2)c2nc(Sc3cc4c(cc3Br)OCO4)nc1-2 [Example 468, 8-[(6-Bromo-1,3-benzodioxol-5-yl)thio]-3-(2-piperidin-4-ylethyl)-3 H-purin-6-amine]

Same assay, conditions: BODIPY-GM 10 nM, Hsp90 30 nM

Compound | pIC50
CC(C)(C)NC(=O)N1CCCC(CCn2c(Sc3cc4c(cc3Br)OCO4)nc3c(N)ncnc32)C1 (stereo not shown) [Example 437, 3-(2-{6-Amino-8-[(6-bromo-1,3-benzodioxol-5-yl)thio]-9H-purin-9-yl}ethyl)-N-(tert-butyl)piperidine-1-carboxamide] | 6.41
COc1ccc(OC)c(Sc2nc3c(N)ncnc3n2CCN2CCN(C(=O)C(C)(C)C)CC2)c1 [Example 444, 8-[(2,5-Dimethoxyphenyl)thio]-9-{2-[4-(2,2-dimethylpropanoyl)piperazin-1-yl]ethyl}-9H-purin-6-amine] | 5.96
CC(C)N1CCCCC1CCn1c(Sc2cc3c(cc2Br)OCO3)nc2c(N)ncnc21 (stereo not shown) [Example 445, 8-[(6-Bromo-1,3-benzodioxol-5-yl)thio]-9-[2-(1-isopropylpiperidin-2-yl)ethyl]-9H-purin-6-amine] | 6.52
CC(C)CN1CCCCC1CCn1c(Sc2cc3c(cc2Br)OCO3)nc2c(N)ncnc21 (stereo not shown) [Example 447, 8-[(6-Bromo-1,3-benzodioxol-5-yl)thio]-9-[2-(1-isobutylpiperidin-2-yl)ethyl]-9H-purin-6-amine] | 6.68
CC(C)(C)C(=O)N1CCCC(CCn2c(Sc3cc4c(cc3Br)OCO4)nc3c(N)ncnc32)C1 (stereo not shown) [Example 449, 8-[(6-Bromo-1,3-benzodioxol-5-yl)thio]-9-{2-[1-(2,2-dimethylpropanoyl)piperidin-3-yl]ethyl}-9H-purin-6-amine] | 6.70
CC(C)(C)C(=O)N1CCC(CCn2c(Sc3cc4c(cc3Br)OCO4)nc3c(N)ncnc32)CC1 [Example 451, 8-[(6-Bromo-1,3-benzodioxol-5-yl)thio]-9-{2-[1-(2,2-dimethylpropanoyl)piperidin-4-yl]ethyl}-9H-purin-6-amine] | 6.71
CC(C)CN1CCC(CCn2c(Sc3cc4c(cc3Br)OCO4)nc3c(N)ncnc32)CC1 [Example 453, 8-[(6-Bromo-1,3-benzodioxol-5-yl)thio]-9-[2-(1-isobutylpiperidin-4-yl)ethyl]-9H-purin-6-amine] | 6.15
CC(C)(C)CC(=O)N1CCCC(CCn2c(Sc3cc4c(cc3Br)OCO4)nc3c(N)ncnc32)C1 (stereo not shown) [Example 454, 8-[(6-Bromo-1,3-benzodioxol-5-yl)thio]-9-{2-[1-(3,3-dimethylbutanoyl)piperidin-3-yl]ethyl}-9H-purin-6-amine] | 6.52
CC(C)(C)OC(=O)N[C@H]1CC[C@H](CCn2c(Sc3cc4c(cc3Br)OCO4)nc3c(N)ncnc32)CC1 [Example 455, tert-Butyl [trans-4-(2-{6-amino-8-[(6-bromo-1,3-benzodioxol-5-yl)thio]-9H-purin-9-yl}ethyl)cyclohexyl]carbamate] | 7.22

The next lines start with the values.

pIC50 | Compound
6.42 | CC(C)(C)OC(=O)N1CC(CCn2c(Sc3cc4c(cc3Br)OCO4)nc3c(N)ncnc32)C1 [Example 458, tert-Butyl 3-(2-{6-amino-8-[(6-bromo-1,3-benzodioxol-5-yl)thio]-9H-purin-9-yl}ethyl)azetidine-1-carboxylate]
5.10 | CC(C)(C)OC(=O)N1C=C(CCn2c(Sc3cc4c(cc3Br)OCO4)nc3c(N)ncnc32)CCC1 [Example 462, tert-Butyl 5-(2-{6-amino-8-[(6-bromo-1,3-benzodioxol-5-yl)thio]-9H-purin-9-yl}ethyl)-3,4-dihydropyridine-1(2 H)-carboxylate]
6.40 | CC(C)(C)OC(=O)N1CCC(CCn2c(Sc3cc4c(cc3Br)OCO4)nc3c(N)ncnc32)C(C)(C)C1 (stereo not shown) [Example 464, tert-Butyl 4-(2-{6-amino-8-[(6-bromo-1,3-benzodioxol-5-yl)thio]-9H-purin-9-yl}ethyl)-3,3-dimethylpiperidine-1-carboxylate]
6.33 | Nc1ncnc2c1nc(Sc1cc3c(cc1Br)OCO3)n2CCC1CCNCC1 [Example 465, 8-[(6-bromo-1,3-benzodioxol-5-yl)thio]-9-(2-piperidin-4-ylethyl)-9H-purin-6-amine]
7.22 | Nc1ncnc2c1nc(Sc1cc3c(cc1Br)OCO3)n2CCC1CCCNC1 (stereo not shown) [Example 466, 8-[(6-Bromo-1,3-benzodioxol-5-yl)thio]-9-(2-piperidin-3-ylethyl)-9H-purin-6-amine]
5.06 | COc1ccc(OC)c(Sc2nc3c(N)ncnc3n2CCC2CCNCC2)c1 [Example 469, 8-[(2,5-Dimethoxyphenyl)thio]-9-(2-piperidin-4-ylethyl)-9 H-purin-6-amine]
6.55 | COc1ccc(OC)c(Sc2nc3c(N)ncnc3n2CCC2CCCNC2)c1 (stereo not shown) [Example 470, 8-[(2,5-Dimethoxyphenyl)thio]-9-(2-piperidin-3-ylethyl)-9 H-purin-6-amine]
6.22 | Nc1ncnc2c1nc(Sc1cc3c(cc1Br)OCO3)n2CC=C1CCNCC1 [Example 471, 8-[(6-Bromo-1,3-benzodioxol-5-yl)thio]-9-(2-piperidin-4-ylideneethyl)-9 H-purin-6-amine]
7.15 | CC1(C)CNCCC1CCn1c(Sc2cc3c(cc2Br)OCO3)nc2c(N)ncnc21 (stereo not shown) [Example 472, 8-[(6-Bromo-1,3-benzodioxol-5-yl)thio]-9-[2-(3,3-dimethylpiperidin-4-yl)ethyl]-9 H-purin-6-amine]
7.46 | Nc1ncnc2c1nc(Sc1cc3c(cc1Br)OCO3)n2CC[C@H]1CCCNC1 [Example 473, 8-[(6-Bromo-1,3-benzodioxol-5-yl)thio]-9-{2-[(3R)-piperidin-3-yl]ethyl}-9 H-purin-6-amine]
6.85 | Nc1ncnc2c1nc(Sc1cc3c(cc1Br)OCO3)n2CC[C@@H]1CCCNC1 [Example 474, 8-[(6-Bromo-1,3-benzodioxol-5-yl)thio]-9-{2-[(3S)-piperidin-3-yl]ethyl}-9 H-purin-6-amine]
6.76 | Nc1ncnc2c1nc(Sc1cc3c(cc1Br)OCO3)n2CC[C@H]1CCCCN1 [Example 475, 8-[(6-Bromo-1,3-benzodioxol-5-yl)thio]-9-{2-[(2R)-piperidin-2-yl]ethyl}-9 H-purin-6-amine]
